According to ChEMBL document CHEMBL6078678, “Unveiling the Antimycobacterial Potential of Novel 4-Alkoxyquinolines: Insights into Selectivity, Mechanism of Action, and In Vivo Exposure” (J Med Chem, 2024):

What follows are compounds tested on Mycobacterium tuberculosis (assay: microbe, parasite or virus in culture).

Row | Compound | MIC [µM]
1 | Cc1cc(OCCCNc2ccc(Cl)cc2)c2cc(Br)ccc2n1 | < 0.05
2 | CCc1ccc(NCCCOc2cc(C)nc3ccc(Br)cc23)cc1 | < 0.05
3 | Cc1cc(OCCCNc2ccc(Br)cc2)c2cc(Cl)ccc2n1 | < 0.06
4 | COc1ccc2nc(C)cc(OCCCNc3ccc(Br)cc3)c2c1 | < 0.05
5 | CCc1ccc(NCCCOc2cc(C)nc3ccc(Cl)cc23)cc1 | < 0.06
6 | COc1ccc2nc(C)cc(OCCCNc3ccc(I)cc3)c2c1 | < 0.05
7 | CCc1ccc(NCCCOc2cc(CC)nc3ccc(Br)cc23)cc1 | < 0.05

Tested on: Mycobacterium tuberculosis
Assay: microbe, parasite or virus in culture
Remark: another data set of the same source

Row | Compound | MIC [µM]
8 | Cc1cc(OCCCNc2ccc(Cl)cc2)c2cc(Br)ccc2n1 | < 0.05
9 | CCc1ccc(NCCCOc2cc(C)nc3ccc(Br)cc23)cc1 | < 0.05
10 | Cc1cc(OCCCNc2ccc(Br)cc2)c2cc(Cl)ccc2n1 | < 0.06
11 | COc1ccc2nc(C)cc(OCCCNc3ccc(Br)cc3)c2c1 | < 0.05
12 | CCc1ccc(NCCCOc2cc(C)nc3ccc(Cl)cc23)cc1 | < 0.06
13 | COc1ccc2nc(C)cc(OCCCNc3ccc(I)cc3)c2c1 | < 0.05
14 | CCc1ccc(NCCCOc2cc(CC)nc3ccc(Br)cc23)cc1 | < 0.05

Tested on: Mycobacterium tuberculosis
Assay: microbe, parasite or virus in culture
Remark: another data set of the same source

Row | Compound | MIC [µM]
15 | Cc1cc(OCCCNc2ccc(Cl)cc2)c2cc(Br)ccc2n1 | < 0.05
16 | CCc1ccc(NCCCOc2cc(C)nc3ccc(Br)cc23)cc1 | < 0.05
17 | Cc1cc(OCCCNc2ccc(Br)cc2)c2cc(Cl)ccc2n1 | < 0.06
18 | COc1ccc2nc(C)cc(OCCCNc3ccc(Br)cc3)c2c1 | < 0.05
19 | CCc1ccc(NCCCOc2cc(C)nc3ccc(Cl)cc23)cc1 | < 0.06
20 | COc1ccc2nc(C)cc(OCCCNc3ccc(I)cc3)c2c1 | < 0.05
21 | CCc1ccc(NCCCOc2cc(CC)nc3ccc(Br)cc23)cc1 | < 0.05
